Reference: patent US20130158090A1, “METRONIDAZOLE ESTERS FOR TREATING ROSACEA” (GALDERMA RESEARCH & DEVELOPMENT, priority 2010, published 2013)
Blank lines part the entries; values can stand above or below the molecule they belong to.

Legend:
[1] = Stability on keratinocyte cultures; type: in vitro ADME, human; details: human neonatal keratinocyte culture, 2 μM, degradation kinetics over 24 hours, LC/MS/MS; read-out: half-life time (t1/2) (converted)
Procedure: (§1) The stability on keratinocyte cultures is evaluated using human neonatal keratinocytes (Cell'N Tech) cultured in a 75 cm^2 flask and detached at 90-100% of confluence with vegetable trypsin (trypLE GIBCO). The compound of formula (I) was tested at 2 μM in the medium CNT-057 (Cell'N Tech) supplemented with 0.1% pluronic acid in 24-well plates. The final DMSO concentration is 0.1%. Degradation kinetics are performed with a Tecan EVO robot over 24 hours. The samples taken are then assayed by LC/MS/MS (Micromass) in comparison with a calibration range of the test product, prepared under the same conditions as the samples (⅓ culture medium and ⅔ methanol). The chromatographic conditions are optimized for each product. An assay of the appearance of metronidazole is also performed using these same samples.

[2] = system: oedema induced by TPA (phorbol 12-myristate-13-acetate) on mouse ear; assay: Acute inflammation on mouse ear: oedema induced by TPA; type: in vivo; details: 6 hours after application
Procedure: The anti-inflammatory activities of the compound of formula (I) in racemic form, of the S enantiomer of the compound of formula (I), of metronidazole and of ibuprofen were measured in an in vivo test performed on a mouse model.
The model used is the model of mouse ear inflammation induced by a single application of TPA (phorbol 12-myristate-13-acetate). Female Balb/c ByJlco mice are used.
The oedema is induced by applying to the ear 20 μl of 0.01% TPA dissolved in ethanol.
The racemic compound of formula (I) is dissolved, at the desired concentration, in the 0.01% TPA solution and thus applied to a group of mice at the same time as the TPA.
The S enantiomer of the compound of formula (I) is dissolved, at the desired concentration, in the 0.01% TPA solution and thus applied to another group of mice at the same time as the TPA.
Similarly, ibuprofen (racemic) is dissolved, at the desired concentration, in the 0.01% TPA solution and is applied to another group of mice at the same time as the TPA. Finally, metronidazole is dissolved, at the desired concentration, in the 0.01% TPA solution and is applied to another group of mice at the same time as the TPA.
The oedema is evaluated, 6 hours after application of the test product, by measuring the thickness of the ear using an Oditest® micrometer.
The TPA-induced oedema is evaluated relative to the ethanol vehicle group. […]

[3] = system: oedema induced by arachidonic acid (AA) on mouse ear; assay: Acute inflammation on mouse ear: arachidonic acid-induced oedema; type: in vivo; details: 1 hour after application
Procedure: The anti-inflammatory activities of the compound of formula (I) in racemic form, of the S enantiomer of the compound of formula (I), of metronidazole and of ibuprofen were measured in an in vivo test performed on a mouse model. This model consists in inducing inflammation of the mouse ear with a single application of arachidonic acid (AA). Female Balb/c ByJlco mice are used. The oedema is induced by applying to the mouse's ear 20 μL of AA dissolved to 4% in a 1/1 THF/methanol mixture. The anti-inflammatory activities of the S enantiomer of the compound of formula (I), of the compound of formula (I) in racemic form, of metronidazole and of ibuprofen were evaluated after topical application onto the inner face of the mouse's ear of 20 μL of a solution of the compound in a 1/1 THF/methanol mixture containing 4% AA.
Solutions containing 0.01%; 0.03%; 0.1%; 0.3%; 1% and 2% of the test compound are thus prepared. The percentages correspond to the weight of the test compound per volume of solution. The oedema is evaluated, 1 hour after application, by measuring the thickness of the ear using an Oditest® micrometer. The oedema induced by AA alone is evaluated, 1 hour after application, by measuring the thickness of the ear using an Oditest® micrometer. It is evaluated relative to a group comprising only the vehicle (1/1 THF/methanol). […]

[4] = system: human neonatal keratinocytes; assay: Stability on keratinocyte cultures; type: in vitro ADME; details: human neonatal keratinocyte cultures, comparative esters
Procedure: as §1

Structure (SMILES): Cc1ncc([N+](=O)[O-])n1CCO [metronidazole]
anti-inflammatory activity ([3]; AA-induced mouse ear oedema, topical): no anti-inflammatory activity | anti-inflammatory activity ([2]; topical): no anti-inflammatory activity

Structure (SMILES): Cc1ncc([N+](=O)[O-])n1CCOC(=O)c1cc(-c2ccc(F)cc2F)ccc1O [metronidazole ester with diflunisal]
hydrolysis / stability on keratinocyte cultures [4]: do not become hydrolysed

Structure (SMILES): COc1ccc2c(c1)c(CC(=O)OCCn1c([N+](=O)[O-])cnc1C)c(C)n2C(=O)c1ccc(Cl)cc1 [metronidazole ester with indomethacin]
hydrolysis / stability on keratinocyte cultures [4]: do not become hydrolysed

Structure (SMILES): Cc1ncc([N+](=O)[O-])n1CCOC(=O)[C@@H](C)c1ccc(CC(C)C)cc1 [S enantiomer of the compound of formula (I), 2-(2-methyl-5-nitroimidazol-1-yl)ethyl (S)-2-(4-isobutylphenyl)propionate]
half-life at 2 μM [1]: 1200 min | inhibition of the oedema induced by AA alone ([3]; dose of 1% (w/v) topical on mouse ear): 49%

The remaining lines, values ahead:

half-life at 2 μM [1]: 180 min | IC50 (concentration at which 50% inhibition of the oedema induced by TPA alone is observed) ([2]; topical with 0.01% TPA): 0.28%
Structure (SMILES): Cc1ncc([N+](=O)[O-])n1CCOC(=O)C(C)c1ccc(CC(C)C)cc1 (racemic) [racemic compound of formula (I), 2-(2-methyl-5-nitroimidazol-1-yl)ethyl 2-(4-isobutylphenyl)propionate]

hydrolysis / stability on keratinocyte cultures [4]: do not become hydrolysed
Structure (SMILES): Cc1ncc([N+](=O)[O-])n1CCOC(=O)C1CCn2c(C(=O)c3ccccc3)ccc21 (stereo not shown) [metronidazole ester with ketorolac]

hydrolysis / stability on keratinocyte cultures [4]: do not become hydrolysed
Structure (SMILES): Cc1ncc([N+](=O)[O-])n1CCOC(=O)c1cccnc1Nc1cccc(C(F)(F)F)c1 [metronidazole ester with niflumic acid]
